The values below come from patent publication US11208385B2, “N-substituted imidazole carboxylate compound, preparation method and use” (priority 2017, dated 2021).

Read-outs that look alike come from different tables or passages of the source.

The subject of series [1] is SD rats. Here is the method:
150 male SD rats weighing 250˜300 g were randomly divided into 15 groups, 10 rats for one group. […] Drugs were injected to rats via caudal vein, and the injection time was 15 seconds. The abolition of righting reflex for 30 s or above was used as the indicator producing anaesthetic effect.

The next series has as its target T1, 11-β hydroxylase (Homo sapiens, UniProt P15538).
T1 sequence (P15538 25-503): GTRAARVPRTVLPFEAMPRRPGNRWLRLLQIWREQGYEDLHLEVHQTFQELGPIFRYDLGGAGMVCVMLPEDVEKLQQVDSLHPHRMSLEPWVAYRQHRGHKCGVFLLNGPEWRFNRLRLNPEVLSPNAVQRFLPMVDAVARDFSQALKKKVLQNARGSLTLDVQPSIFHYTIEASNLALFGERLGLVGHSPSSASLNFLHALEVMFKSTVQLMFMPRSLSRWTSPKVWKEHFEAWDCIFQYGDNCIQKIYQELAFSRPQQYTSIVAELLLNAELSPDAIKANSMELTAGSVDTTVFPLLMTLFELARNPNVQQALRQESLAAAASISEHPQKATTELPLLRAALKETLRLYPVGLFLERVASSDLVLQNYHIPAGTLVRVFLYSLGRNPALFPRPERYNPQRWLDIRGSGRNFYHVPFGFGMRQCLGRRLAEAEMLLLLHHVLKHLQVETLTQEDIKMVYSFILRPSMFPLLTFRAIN
Conditions: 11-β hydroxylase versus GABAA receptor; cited from earlier work.

For series [2] the following is noted: in vivo, 3 mg/kg; cited from earlier work.
For another series, the system named is corticosterone. In words: Serum corticosterone after dexamethasone suppression and ACTH stimulation in rats (ELISA). Conditions: ACTH stimulation. Here is the method: Male rats (250˜300 g) were chosen as test animals, and the content of corticosterone in serum of rats was measured using ELISA kit and ELISA reader. 65 SD rats were randomly divided into 13 groups, five rats for each group. […] 30 min After administration of ACTH, the concentrations of two cortical hormones in animal body were determined.

Series [3] in a line: In vitro degradation experiment in rat liver homogenate (HPLC). The series is classed as in vitro ADME. The protocol:
In Vitro Degradation Experiment of Compounds.
Chromatographic condition: mobile phase is methanol: H2O=65:35, and the water phase contains 0.06% ammonium acetate; the flow rate is 1 mL/min; the column temperature is 25° C.
Apparatus: Agilent 1100 Series. Chromatographic column: Aglent Eclipse Plus C18 column, 5 μm 4.6*[…].
The linear range is 1-50 μg/mL.
After fasting for 24 h, male SD rats were treated to collect liver, and the water on the surface of liver was removed using the filter paper, then liver was weighed. […] Then, the homogenate was centrifugated at 10000 g for 20 min at the temperature of 4° C. The supernatant solution was collected, and 14 samples (2 mL) of liver homogenate were taken out and warmed to 37° C. in water bath. Each compound (content 10 mg/mL, 10 μl) was added, respectively, to make a concentration of 50 μg/mL in liver homogenate.
[…] After centrifugation, the supernatant solution was taken out and injected. The concentration of each compound at each time point was detected, that was divided by the initial concentration of each compound, to obtain the degradation ratio of each compound.

Series [4] has as its system SD rats. The protocol: 30 male SD rats weighing 250˜300 g were randomly divided into 6 groups, 5 rats for one group. […] Each drug was continually infused to rats via caudal vein, and made the righting reflex abolish, and the abolition of righting reflex was maintained for 1 hour. The wake time after drug withdrawal and the time of full recovery were recorded.
The source holds these as a separate data set.

With `CCOC(=O)c1cncn1[C@H](C)c1ccccc1` [Etomidate, reference compound], in the series with SD rats [1] (equivalent dose of anesthesia), the Onset of anaesthesia entry is recorded as “immediately anesthetize the rats”. The “Incidence rate (%) of muscle tremor” value in the series with SD rats [1] (single iv dose of 2ED50, 10 rats per group) was determined as 40%. Also, the “Time of keeping anaesthesia” value in the series with SD rats [1] (single iv dose of 2ED50, from abolition to recovery of righting reflex) turned out to be 6.3 ± 2.8 min. For the same compound, the “Time of complete recovery” value in the series with SD rats [1] (single iv dose of 2ED50, from recovery of righting reflex to free walk) was determined as 7.2 ± 1.7 min. The “Combining capacity with 11-β hydroxylase relative to GABAA receptor” value at 11-β hydroxylase was 100 times. Moreover, in series [2], the “Minimum effective concentration producing anaesthetic effect in plasma” value is listed as 200 ng/mL, the “Minimum effective concentration to inhibit the synthesis of cortical hormones” value is listed as 8 ng/mL, the “Time of maintaining the drug concentration of >8 ng/mL in plasma” value was 8 h and the “Time of maintaining the drug concentration of >200 ng/mL in plasma” value was 8 min. In addition, the “Effect on self-synthesis of adrenal cortical hormones” value in the series with corticosterone is “significantly suppress”. For the same compound, the “Decomposition under the action of liver homogenate of rats” value in series [3] (comparative experiment) is on record as “slowly decomposed”. The “Residual rate at 5 min (%)” value in series [3] (rat liver homogenate, 37° C., 50 μg/mL, 5 min) is 97.9%. For the same compound, the “Residual rate at 10 min (%)” value in series [3] (rat liver homogenate, 37° C., 50 μg/mL, 10 min) is given as 95.9%. Also, the “Residual rate at 20 min (%)” value in series [3] (rat liver homogenate, 37° C., 50 μg/mL, 20 min) was found to be 95.9%. Besides, in the series with SD rats [4] (after 1 h continual infusion, from recovery of righting reflex to free walk), the “Time of complete recovery” value is on record as 85 ± 29 min. The “Wake time after drug withdrawal” value in the series on SD rats [4] (after 1 h continual infusion, recovery time of righting reflex after discontinuance) was found to be 18 ± 10 min. Also, the “Incidence rate (%) of muscle tremor” value in the series with SD rats [4] (continual infusion for 1 h) is 60%.
